We go through 1 compound from US8795632B2, “Disease animal model for chronic pain” (Astellas Pharma Inc., priority 2008, dated 2014).

For one assay, the system named is Sprague-Dawley rats. Nature of the assay: Cold sensitivity (acetone method) after reserpine single administration. Type of assay: in vivo, rat. As to conditions: reserpine 3 mg/kg single s.c. The protocol: Measurement of cold sensitivity was carried out in accordance with the method of Choi et al. (Choi et al., Pain, 59, 369-376, 1994). After adaptation of each rat to a wire mesh bottom cage for measurement, 50 μl of acetone was sprayed to the plantar surface of the right hind paw of the rat using a syringe for insulin injection. The number of reactions of the right hind paw (flinching, lifting and leg licking) occurred during 1 minute just after the spraying was measured and used as the index of cold sensitivity. At each point of time of the measurement, the acetone spraying was carried out 3 times at 5 minute intervals and the average was used as the measured vale. […]
Influences of the reserpine single administration upon the muscle pressure pain threshold value, skin pain sensation threshold value, cold sensitivity and heat sensitivity were examined in accordance with the following protocol. […] The muscle pressure pain threshold value, skin pain sensation threshold value, cold sensitivity and heat sensitivity before the reserpine treatment (base lines) were measured and then they were divided into a solvent (0.5% acetic acid aqueous solution) group and a reserpine (3 mg/kg) group (the number of animals per group was 6). […]
All of the measured values were expressed as average value±standard error. […]

For assay [1], the system named is dopamine, norepinephrine, serotonin, DOPAC, MHPG and 5-HIAA in the spinal cord, thalamus and prefrontal cortex. Nature of the assay: Amounts of dopamine, norepinephrine, serotonin, DOPAC, MHPG and 5-HIAA in spinal cord, thalamus and prefrontal cortex after reserpine single administration (HPLC-ECD). In kind it is in vivo, rat. The following applies: reserpine 3 mg/kg single s.c. The protocol:
Male Sprague-Dawley rats (7 weeks old, Japan SLC, Hamamatsu, Japan) were used as the animal.
A total of 72 rats were divided into 12 test schedules (collection of samples before the administration, 2, 4, 8 and 24 hours after the administration and 2, 3, 5, 7, 10, 14 and 21 days thereafter) and further divided each of them into a vehicle (0.5% acetic acid aqueous solution) administration group and a reserpine 3 mg/kg administration group, to 3 rats per group. As shown in Example 5, the vehicle or 3 mg/kg of reserpine was administered subcutaneously only once to each rat, and the brain and spinal cord were quickly collected after 2, 4, 8 or 24 hours or 2, 3, 5, 7, 10, 14 or 21 days of the administration. The thalamus and prefrontal cortex were separated from the brain on an ice-cold dish. Regarding the sampling before administration, samples were collected before beginning of the administration of the vehicle or reserpine. The collected samples were quickly frozen and stored at −80° C. until their use in the measurements. On the day of the measurement, tissues of respective samples were subjected to wet weight measurement, homogenized in 0.2 M perchloric acid/0.1 mM EDTA-2Na solution using an ultrasonic homogenizer. After centrifugation at 15,000 g and at 4° C. for 15 minutes, the supernatant was adjusted to pH 3.5 using sodium acetate and filtered using a filter. Amounts of dopamine, norepinephrine, serotonin, DOPAC, MHPG and 5-HIAA in these samples were measured using a high performance liquid chromatography (column: SC-50DS 3.0, 150 mm, Eicom Co., Ltd., Kyoto, Japan, mobile phase composition: 0.1 M sodium acetate buffer, 0.1 M citrate buffer, pH 3.5, 5 mg/l EDTA-2Na, 200 mg/l sodium octane sulfonic acid, 16% methanol) and an electrochemical detector (ECD-300, Eicom Co., Ltd., Kyoto, Japan). The measurement was carried out under conditions of flow rate 0.5 ml/min, applied voltage 750 mV and 25° C. Amounts of dopamine, norepinephrine, serotonin, DOPAC, MHPG and 5-HIAA in the samples were quantified by comparing sample peak areas of respective standards measured on the same day of the sample measurement.
All of the measured values were expressed as average value±standard error in the graphs, and unit of the measured values was set to ng/g tissue wet weight. Statistical difference of the measured values between the reserpine administration group and the vehicle administration group in each test schedule was carried out by the two-way analysis of variance and the Bonferroni method. Probability value (P) of less than 5% was judged as statistically significant (P<0.05 was expressed as * in the graphs).

Where [2] appears, read: after 2, 4, 8 and 24 hours and 2, 3, 5, 7, 10, 14 and 21 days.

As for `COC(=O)[C@H]1[C@H]2C[C@@H]3c4[nH]c5cc(OC)ccc5c4CCN3C[C@H]2C[C@@H](OC(=O)c2cc(OC)c(OC)c(OC)c2)[C@@H]1OC` [reserpine], the “cold sensitivity: number of reactions” value with Sprague-Dawley rats (after 2, 3, 5, 7 and 10 days) was “significantly increased”. In addition, the “cold sensitivity: number of reactions” value with Sprague-Dawley rats (within 24 hours after administration) was “did not show significant increase”. The “amount of DOPAC in the prefrontal cortex” value in assay [1] (after 2, 3, 5, 7, 10 and 14 days) was “significantly reduced”. Besides, in assay [1] (after 2, 4, 8 and 24 hours), the “amount of 5-HIAA in the thalamus” value is on record as “significantly increased” and the “amount of DOPAC in the spinal cord” value was “significantly increased”. In assay [1] (setting [2]), the “amount of dopamine in the spinal cord” value is listed as “significantly reduced”, the “amount of dopamine in the thalamus” value is “significantly reduced”, the “amount of norepinephrine in the prefrontal cortex” value is given as “significantly reduced” and the “amount of norepinephrine in the spinal cord” value was “significantly reduced”. For the same compound, in assay [1] (setting [2]), the “amount of norepinephrine in the thalamus” value is recorded as “significantly reduced” and the “amount of serotonin in the spinal cord” value is on record as “significantly reduced”. Further, the “amount of dopamine in the prefrontal cortex” value in assay [1] (after 2, 4, 8 and 24 hours and 2, 3, 5, 7, 10 and 14 days) is reported as “significantly reduced”. Moreover, in assay [1] (after 2, 4, 8 and 24 hours and 2, 3, 5, 7 and 10 days), the “amount of serotonin in the prefrontal cortex” value is on record as “significantly reduced”. Further, the “amount of 5-HIAA in the spinal cord” value in assay [1] (after 4, 8, 24 hours and 2 days) is on record as “significantly increased”. In assay [1] (after 8 and 24 hours and 3, 5, 7 and 10 days), the “amount of serotonin in the thalamus” value was “significantly reduced”. In assay [1] (after 4 hours and 7 days), the “amount of MHPG in the prefrontal cortex” value is “significantly reduced” and the “amount of MHPG in the spinal cord” value is on record as “significantly reduced”. For the same compound, the “amount of 5-HIAA in the prefrontal cortex” value in assay [1] (after 8 hours and 2, 3, 5, 7, 10, 14 and 21 days) is “significantly reduced”. The “amount of DOPAC in the spinal cord” value in assay [1] (after 2 days and later) is “did not significantly change”. In assay [1] (all time points), the “amount of DOPAC in the thalamus” value is reported as “did not significantly change” and the “amount of MHPG in the thalamus” value is listed as “did not significantly change”. Moreover, the “amount of 5-HIAA in the thalamus” value in assay [1] (in and after 2 days) was “no significant difference”. Also, the “amount of 5-HIAA in the spinal cord” value in assay [1] (in and after 3 days) was “did not significantly change”. In addition, the “amount of DOPAC in the prefrontal cortex” value in assay [1] (within 24 hours after the administration) is recorded as “did not significantly change”.
